{"source": "patent US9138466B2", "about": "“Factor H for transplantation” (Baxter International Inc., priority 2013, dated 2015)", "system": "C3H kidney allografts in pre-sensitized B6 recipients", "assay": "Pre-sensitized mouse kidney allograft model, RAPA / CFH / FK506, graft survival (Example 2)", "type": "in vivo", "source_text": "Male C3H (H-2k) and C57BL/6 (B6, H-2b) mice (25-30 g) were used to determine the efficacy of Rapamycin (RAPA) in combination with Factor H (FH) during transplant rejection. C3H mice served as skin graft and kidney donors for pre-sensitization and kidney transplantation. Male C57BL/c (B6) mice were used as recipients. The B6 recipients were pre-sensitized by transplantation of the donor skin grafts, and were subsequently transplanted with kidney allografts between 15 and 20 days after the skin transplantation. […]\nMice were monitored daily for signs of rejection and were euthanized at the end point of the experiment, which was defined as when transplants developed functional deterioration due to severe rejection or on POD60 and POD100. Renal graft function was monitored by plasma creatinine (Cr) blood urea nitrogen (BUN) and hematocrit (Hct) levels by an I-Stat potable analyzer (Abaxis). Circulating donor specific antibodies (DSAs) were determined prior to kidney transplantation and at the endpoint of study by flow cytometry.", "note": "Several values for one entry are separate records, joined by “and”; a condition that tells them apart may be missing. Equal values may be shown once.", "data": [{"smiles": "CO[C@H]1C[C@@H]2CC[C@@H](C)[C@@](O)(O2)C(=O)C(=O)N2CCCC[C@H]2C(=O)O[C@H]([C@H](C)C[C@@H]2CC[C@@H](O)[C@H](OC)C2)CC(=O)[C@H](C)/C=C(\\C)[C@@H](O)[C@@H](OC)C(=O)[C@H](C)C[C@H](C)/C=C/C=C/C=C/1C", "note": "[RAPA Alone, Rapamycin]", "values": [{"measurement": "Survival", "setting": "individual grafts, pre-sensitized kidney transplant model", "result": "8 days (2×) and 37 days and 10 days and 11 days and 12 days and 22 days and 14 days and 16 days and 20 days"}, {"measurement": "MST (mean survival time)", "setting": "per cohort, untreated controls 8 days", "result": 14, "unit": "days"}]}]}
